Assays:
[1] = test system: P. aeruginosa 77; assay: Microbroth dilution MIC with and without sucrose recovery; format: cell-based, Pseudomonas aeruginosa; conditions: MIC given as multiple of S/I/R; for minimum inhibitory concentration (MIC), Standard: P. aeruginosa 77 recovered by standard plating; for minimum inhibitory concentration (MIC), Sucrose: P. aeruginosa 77 recovered through sucrose (Method 2)
Experimental: (§1) Microbroth dilution for minimum inhibitory concentrations (MIC) with and without sucrose recovery. To isolate bacteria without sucrose, culture media from positive BacT/alert FA PLUS aerobic culture bottles (bioMérieux, Durham, NC) was serially diluted and plated onto LB agar (Lennox; Sigma-Aldrich, St. Louis, MO). Bacterial suspensions were prepared by resuspending colonies in CAMHB with incubation on a MaxQ 4000 incubator shaker (Thermo Fisher Scientific, Waltham, MA) at 37° C. and ˜225 rpm for 3 hours. Bacteria recovered via Method 2 were diluted 10-fold in CAMHB. Following incubation or sucrose recovery and dilution, bacterial suspensions were adjusted to ˜0.004 OD600 with CAMHB and a 50-μL aliquot distributed to each well of a 96-well plate containing CAMHB with and without clinically relevant antibiotics (2-fold dilution series). Gram-negative plates included: ceftazidime (3rd generation cephalosporin, RPI corp., Mount Prospect, IL), cefepime (4th generation cephalosporin, Chem-Impex Int'l, Wood Dale, IL), meropenem (carbapenem, Tokyo Chemical Industry, Tokyo, Japan), levofloxacin (quinolone, Alfa Aesar, Haverhill, MA), and tobramycin (aminoglycoside, MP Biomedicals LLC, Santa Ana, CA), while S. aureus plates contained: oxacillin (beta-lactam, Sigma-Aldrich, St. Louis, MO), vancomycin (glycopeptide, Santa Cruz Biotechnology, Dallas, TX), erythromycin (macrolide, Sigma-Aldrich, St. Louis, MO), clindamycin ([…]), and ciprofloxacin (fluoroquinolone, Sigma-Aldrich, St. Louis, MO). Antibiotic plates were incubated at 37° C. for 16-20 hours (gram-negative) or 35° C. for 24 hours (S. aureus), at which time, plates were removed from the incubator and visually inspected for bacterial growth. The MIC was set at the lowest antibiotic concentration at which no growth was detected.
(§2) Influence of Sucrose on Bacterial MIC. To rule out the potential effect of sucrose exposure in bacterial antibiotic susceptibility, microbroth dilution studies were performed on bacteria recovered using standard practices (i.e. plating following positive blood culture) and through selective lysis coupled with centrifugation through the sucrose cushion (Method 2).

[2] = test system: E. coli 79; assay: as above; format: cell-based, Escherichia coli; conditions: MIC given as multiple of S/I/R
Experimental: as §1, §2

`CC(C)(O/N=C(\C(=O)N[C@@H]1C(=O)N2C(C(=O)[O-])=C(C[n+]3ccccc3)CS[C@H]12)c1csc(N)n1)C(=O)O` [Ceftazidime, ceftazidime] was tested, and the “minimum inhibitory concentration (MIC), Standard” value [1] was “½S” and the “minimum inhibitory concentration (MIC), Sucrose” value [1] was “¼S”.

With `C[C@@H](O)[C@H]1C(=O)N2C(C(=O)O)=C(S[C@@H]3CN[C@H](C(=O)N(C)C)C3)[C@H](C)[C@H]12` [Meropenem, meropenem] the “minimum inhibitory concentration (MIC), Standard” value [1] was “⅛S”.

For `NC[C@H]1O[C@H](O[C@H]2[C@H](O)[C@@H](O[C@H]3O[C@H](CO)[C@@H](O)[C@H](N)[C@H]3O)[C@H](N)C[C@@H]2N)[C@H](N)C[C@@H]1O` [Tobramycin, tobramycin], the “minimum inhibitory concentration (MIC), Standard” value ([2]; E. coli 79 recovered by standard plating) was “¼S”, the “minimum inhibitory concentration (MIC), Sucrose” value ([2]; E. coli 79 recovered through sucrose (Method 2)) was “¼S” and the “minimum inhibitory concentration (MIC), Standard” value [1] was “⅛S”. The “minimum inhibitory concentration (MIC), Sucrose” value [1] was “⅛S”.

Source: patent US20240368667A1, “RAPID, LABEL-FREE ANTIBIOTIC SUSCEPTIBILITY OF BACTERIA DIRECTLY FROM POSITIVE BLOOD OR BODILY FLUID/CULTURE” (priority 2021, published 2024)
